Measurements reported in BindingDB's records for doi:10.1016/0960-894X(94)00458-R (Tumor Biology Center, 1995).

Experiments:
[1] = The activity of cGPK, activated by cGMP, is measured by its ability to transfer phosphate from [gamma-32P]ATP to histone.
[2] = target: Myosin light chain kinase, smooth muscle (Gallus gallus, UniProt P11799); assay: MLCK assay; conditions: pH 7.2; 30 °C
Experimental: The activity of MLCK is measured by its ability to transfer 32P from [gamma-32P]ATP to myosin light-chain.

[3] = target: Tyrosine-protein phosphatase non-receptor type 2 (Mus musculus); assay: TPK assay
Experimental: The activity of TPK is measured by its ability to transfer 32P from [gamma-32P]ATP to Poly(Glu,Tyr; 4:l).

[4] = target: Protein kinase C beta type (Rattus norvegicus, UniProt P68403); assay: MLCK assay
[5] = target: cAMP-dependent protein kinase catalytic subunit alpha (Bos taurus, UniProt P00517); assay: PKA assay
Experimental: The activity of PKA, activated by cAMP, is measured by its ability to transfer phosphate from [gamma-32P]ATP to histone.

[6] = target: T1, cGMP-dependent protein kinase 1 (Bos taurus, UniProt P00516); assay: cGPK assay
T1 sequence (P00516 whole entry): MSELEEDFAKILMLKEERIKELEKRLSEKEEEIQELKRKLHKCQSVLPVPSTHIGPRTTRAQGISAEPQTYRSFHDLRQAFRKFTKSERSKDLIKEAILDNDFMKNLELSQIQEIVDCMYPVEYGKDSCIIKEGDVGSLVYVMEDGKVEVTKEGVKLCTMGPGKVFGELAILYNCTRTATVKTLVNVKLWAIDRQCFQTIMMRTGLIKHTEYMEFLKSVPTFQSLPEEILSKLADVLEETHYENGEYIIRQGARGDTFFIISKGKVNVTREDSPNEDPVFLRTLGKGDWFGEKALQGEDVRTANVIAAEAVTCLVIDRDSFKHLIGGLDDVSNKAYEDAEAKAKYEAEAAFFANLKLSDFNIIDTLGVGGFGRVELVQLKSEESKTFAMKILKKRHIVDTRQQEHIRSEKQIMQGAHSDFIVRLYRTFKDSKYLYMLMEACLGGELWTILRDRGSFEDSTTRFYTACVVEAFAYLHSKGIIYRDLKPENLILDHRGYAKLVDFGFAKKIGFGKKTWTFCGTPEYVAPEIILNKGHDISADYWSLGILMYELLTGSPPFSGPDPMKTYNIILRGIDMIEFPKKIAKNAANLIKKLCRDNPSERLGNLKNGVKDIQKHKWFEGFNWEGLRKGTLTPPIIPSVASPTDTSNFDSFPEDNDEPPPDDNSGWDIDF
Experimental: The activity of cGPK, activated by cGMP, is measured by its ability to transfer phosphate from [gamma-32P]ATP to histone.

Sequence of Protein kinase C beta type (P68403 whole entry): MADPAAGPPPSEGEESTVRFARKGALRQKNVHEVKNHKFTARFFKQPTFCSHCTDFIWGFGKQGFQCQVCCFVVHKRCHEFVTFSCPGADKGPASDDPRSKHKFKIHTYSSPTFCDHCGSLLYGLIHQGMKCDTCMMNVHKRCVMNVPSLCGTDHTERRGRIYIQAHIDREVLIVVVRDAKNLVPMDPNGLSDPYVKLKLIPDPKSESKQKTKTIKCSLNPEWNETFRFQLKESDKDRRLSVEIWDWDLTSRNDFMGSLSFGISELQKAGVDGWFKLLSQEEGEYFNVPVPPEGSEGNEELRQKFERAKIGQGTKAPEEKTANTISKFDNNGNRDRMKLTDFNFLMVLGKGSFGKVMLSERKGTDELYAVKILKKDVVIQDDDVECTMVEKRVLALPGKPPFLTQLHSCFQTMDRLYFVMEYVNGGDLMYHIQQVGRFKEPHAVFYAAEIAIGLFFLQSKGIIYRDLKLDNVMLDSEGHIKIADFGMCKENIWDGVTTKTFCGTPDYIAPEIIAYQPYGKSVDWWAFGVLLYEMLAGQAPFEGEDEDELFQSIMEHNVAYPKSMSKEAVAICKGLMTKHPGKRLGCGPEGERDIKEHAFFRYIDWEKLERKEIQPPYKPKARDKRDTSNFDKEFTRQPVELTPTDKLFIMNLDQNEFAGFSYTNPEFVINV
Sequence of Myosin light chain kinase, smooth muscle (P11799 whole entry): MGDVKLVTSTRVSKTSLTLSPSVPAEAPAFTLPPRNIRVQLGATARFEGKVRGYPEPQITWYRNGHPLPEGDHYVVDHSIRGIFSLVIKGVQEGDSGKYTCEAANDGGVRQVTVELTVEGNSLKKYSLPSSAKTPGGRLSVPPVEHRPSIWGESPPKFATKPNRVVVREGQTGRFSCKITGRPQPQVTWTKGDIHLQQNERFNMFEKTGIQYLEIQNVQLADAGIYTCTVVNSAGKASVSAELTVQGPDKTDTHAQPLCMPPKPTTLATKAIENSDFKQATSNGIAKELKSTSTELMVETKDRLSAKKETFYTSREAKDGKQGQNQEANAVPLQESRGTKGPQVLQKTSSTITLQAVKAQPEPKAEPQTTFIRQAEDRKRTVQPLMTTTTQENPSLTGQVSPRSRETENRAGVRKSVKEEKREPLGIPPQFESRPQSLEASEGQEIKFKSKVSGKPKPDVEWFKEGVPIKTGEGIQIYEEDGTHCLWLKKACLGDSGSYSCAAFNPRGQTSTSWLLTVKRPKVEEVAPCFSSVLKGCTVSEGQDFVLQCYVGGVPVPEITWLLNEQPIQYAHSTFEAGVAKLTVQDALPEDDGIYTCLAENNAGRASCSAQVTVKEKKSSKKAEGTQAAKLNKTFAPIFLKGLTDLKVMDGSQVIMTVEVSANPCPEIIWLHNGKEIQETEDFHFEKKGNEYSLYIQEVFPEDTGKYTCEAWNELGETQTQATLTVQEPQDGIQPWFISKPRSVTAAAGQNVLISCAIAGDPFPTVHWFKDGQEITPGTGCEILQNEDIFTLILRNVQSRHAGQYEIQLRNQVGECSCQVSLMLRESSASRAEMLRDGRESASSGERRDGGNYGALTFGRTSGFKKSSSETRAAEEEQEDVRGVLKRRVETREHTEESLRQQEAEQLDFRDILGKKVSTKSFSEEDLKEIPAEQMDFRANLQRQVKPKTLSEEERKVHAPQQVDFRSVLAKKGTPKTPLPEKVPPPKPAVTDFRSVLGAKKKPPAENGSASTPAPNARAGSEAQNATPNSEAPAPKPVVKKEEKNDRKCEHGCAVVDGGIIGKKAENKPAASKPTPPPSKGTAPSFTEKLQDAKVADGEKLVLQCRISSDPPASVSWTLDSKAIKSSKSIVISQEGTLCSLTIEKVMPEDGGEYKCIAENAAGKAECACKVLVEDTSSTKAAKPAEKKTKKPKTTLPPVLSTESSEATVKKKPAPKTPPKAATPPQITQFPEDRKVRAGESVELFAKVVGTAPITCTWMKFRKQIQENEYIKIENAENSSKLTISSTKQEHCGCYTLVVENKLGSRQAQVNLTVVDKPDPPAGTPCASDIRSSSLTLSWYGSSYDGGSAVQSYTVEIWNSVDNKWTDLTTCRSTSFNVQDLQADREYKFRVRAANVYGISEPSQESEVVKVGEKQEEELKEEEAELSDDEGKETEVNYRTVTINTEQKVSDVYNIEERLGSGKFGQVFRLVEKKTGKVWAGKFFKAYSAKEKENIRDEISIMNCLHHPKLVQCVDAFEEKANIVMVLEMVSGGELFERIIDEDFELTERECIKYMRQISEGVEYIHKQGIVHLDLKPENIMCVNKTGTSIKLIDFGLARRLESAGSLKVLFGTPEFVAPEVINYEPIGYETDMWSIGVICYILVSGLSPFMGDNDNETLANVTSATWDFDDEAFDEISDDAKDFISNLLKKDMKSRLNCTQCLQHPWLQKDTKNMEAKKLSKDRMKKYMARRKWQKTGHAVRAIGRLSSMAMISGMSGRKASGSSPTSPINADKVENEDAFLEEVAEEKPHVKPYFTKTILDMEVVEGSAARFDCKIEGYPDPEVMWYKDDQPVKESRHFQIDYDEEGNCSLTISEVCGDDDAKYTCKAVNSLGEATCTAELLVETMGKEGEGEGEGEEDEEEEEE

| SMILES | IC50 [1] | IC50 [2] | IC50 [3] | IC50 [4] | IC50 [5] | IC50 [6] |
| --- | --- | --- | --- | --- | --- | --- |
| COc1ccc2c(c1)c1c3c(c4c5ccccc5n(C)c4c1n2CCCC#N)C(=O)NC3=O [3-(9-methoxy-13-methyl-5,7-dioxo-6,7,12,13-tetrahydro-5H-indolo[2,3-a]pyrrolo[3,4-c]carbazol-12-yl)propyl cyanide] | 32 nM | – | – | – | – | – |
| Cn1c2ccc(O)cc2c2c3c(c4c5cc(O)ccc5n(CCC#N)c4c21)CNC3=O [3-{7,19-dihydroxy-23-methyl-14-oxo-3,13,23-triazahexacyclo[14.7.0.0^{2,10}.0^{4,9}.0^{11,15}.0^{17,22}]tricosa-1(16),2(10),4(9),5,7,11(15),17,19,21-nonaen-3-yl}propanenitrile] | 30 nM | 30 nM | – | – | – | – |
| COc1ccc2c(c1)c1c3c(c4c5cc(OC)ccc5n(CCC#N)c4c1n2C)C(=O)NC3=O [3-{7,19-dimethoxy-23-methyl-12,14-dioxo-3,13,23-triazahexacyclo[14.7.0.0^{2,10}.0^{4,9}.0^{11,15}.0^{17,22}]tricosa-1(16),2(10),4(9),5,7,11(15),17,19,21-nonaen-3-yl}propanenitrile] | 180 nM | – | – | – | – | – |
| COc1ccc2c(c1)c1c3c(c4c5cc(OC)ccc5n(CCC#N)c4c1n2C)CNC3=O [3-{7,19-dimethoxy-23-methyl-14-oxo-3,13,23-triazahexacyclo[14.7.0.0^{2,10}.0^{4,9}.0^{11,15}.0^{17,22}]tricosa-1(16),2(10),4(9),5,7,11(15),17,19,21-nonaen-3-yl}propanenitrile] | 1600 nM | 1600 nM | > 10000 nM | – | – | – |
| COc1ccc2c(c1)c1c3c(c4c5ccccc5n(C)c4c1n2CCC#N)C(=O)NC3=O [3-{7-methoxy-23-methyl-12,14-dioxo-3,13,23-triazahexacyclo[14.7.0.0^{2,10}.0^{4,9}.0^{11,15}.0^{17,22}]tricosa-1(16),2(10),4(9),5,7,11(15),17,19,21-nonaen-3-yl}propanenitrile] | 200 nM | 49 nM | – | 16 nM | – | – |
| COc1ccc2c(c1)c1c3c(c4c5ccccc5n(CCC#N)c4c1n2C)C(=O)NC3=O [3-{19-methoxy-23-methyl-12,14-dioxo-3,13,23-triazahexacyclo[14.7.0.0^{2,10}.0^{4,9}.0^{11,15}.0^{17,22}]tricosa-1(16),2(10),4(9),5,7,11(15),17,19,21-nonaen-3-yl}propanenitrile] | 49 nM | 200 nM | > 10000 nM | 2 nM | 400 nM | > 3000 nM |
| Cn1c2ccccc2c2c3c(c4c5ccccc5n(CCC#N)c4c21)C(=O)NC3=O [3-{23-methyl-12,14-dioxo-3,13,23-triazahexacyclo[14.7.0.0^{2,10}.0^{4,9}.0^{11,15}.0^{17,22}]tricosa-1(16),2(10),4(9),5,7,11(15),17,19,21-nonaen-3-yl}propanenitrile] | 55 nM | – | – | – | > 30000 nM | – |
| COc1ccc2c(c1)c1c3c(c4c5ccccc5n(CCCC#N)c4c1n2C)C(=O)NC3=O [4-{19-methoxy-23-methyl-12,14-dioxo-3,13,23-triazahexacyclo[14.7.0.0^{2,10}.0^{4,9}.0^{11,15}.0^{17,22}]tricosa-1(16),2(10),4(9),5,7,11(15),17,19,21-nonaen-3-yl}butanenitrile] | – | 32 nM | – | 5 nM | 200 nM | 1000 nM |
| COc1ccc2c(c1)c1c3c(c4c5ccccc5n(C)c4c1n2CC(O)CN(C)C)C(=O)NC3 (stereo unspecified) [12-(3-dimethylamino-2-hydroxypropyl)-9-methoxy-13-methyl-6,7,12,13-tetrahydro-5H-indolo[2,3-a]pyrrolo[3,4-c]carbazol-5-one] | 9200 nM | – | – | – | – | – |

Continued, values first:

| IC50 [1] | IC50 [2] | IC50 [3] | IC50 [4] | IC50 [5] | IC50 [6] | SMILES |
| --- | --- | --- | --- | --- | --- | --- |
| 120 nM | – | – | – | – | – | COc1ccc2c(c1)c1c3c(c4c5ccccc5n(C)c4c1n2CC(O)CN(C)C)C(=O)NC3=O (stereo unspecified) [13-(3-dimethylamino-2-hydroxypropyl)-3-methoxy-12-methyl-6,7,12,13-tetrahydro-5H-indolo[2,3-a]pyrrolo[3,4-c]carbazole-5,7-dione] |
| 18 nM | 18 nM | – | – | – | – | Cn1c2ccccc2c2c3c(c4c5ccccc5n(CCCN)c4c21)CNC3=O [23-(3-aminopropyl)-3-methyl-3,13,23-triazahexacyclo[14.7.0.0^{2,10}.0^{4,9}.0^{11,15}.0^{17,22}]tricosa-1(16),2(10),4,6,8,11(15),17(22),18,20-nonaen-12-one] |
| 120 nM | 120 nM | – | – | – | – | CN(C)CC(O)Cn1c2ccccc2c2c3c(c4c5ccccc5n(C)c4c21)C(=O)NC3=O (stereo unspecified) [23-[3-(dimethylamino)-2-hydroxypropyl]-3-methyl-3,13,23-triazahexacyclo[14.7.0.0^{2,10}.0^{4,9}.0^{11,15}.0^{17,22}]tricosa-1(16),2(10),4,6,8,11(15),17(22),18,20-nonaene-12,14-dione] |
| – | 9200 nM | > 10000 nM | 86 nM | 15000 nM | 23000 nM | COc1ccc2c(c1)c1c3c(c4c5ccccc5n(CC(O)CN(C)C)c4c1n2C)CNC3=O (stereo unspecified) [23-[3-(dimethylamino)-2-hydroxypropyl]-7-methoxy-3-methyl-3,13,23-triazahexacyclo[14.7.0.0^{2,10}.0^{4,9}.0^{11,15}.0^{17,22}]tricosa-1(16),2(10),4,6,8,11(15),17(22),18,20-nonaen-12-one] |
| – | 120 nM | – | 4 nM | 510 nM | 4800 nM | COc1ccc2c(c1)c1c3c(c4c5ccccc5n(CC(O)CN(C)C)c4c1n2C)C(=O)NC3=O (stereo unspecified) [23-[3-(dimethylamino)-2-hydroxypropyl]-7-methoxy-3-methyl-3,13,23-triazahexacyclo[14.7.0.0^{2,10}.0^{4,9}.0^{11,15}.0^{17,22}]tricosa-1(16),2(10),4,6,8,11(15),17(22),18,20-nonaene-12,14-dione] |
| 390 nM | 390 nM | – | – | > 10000 nM | – | CN(C)CCCn1c2ccccc2c2c3c(c4c5ccccc5[nH]c4c21)C(=O)NC3 [23-[3-(dimethylamino)propyl]-3,13,23-triazahexacyclo[14.7.0.0^{2,10}.0^{4,9}.0^{11,15}.0^{17,22}]tricosa-1(16),2(10),4,6,8,11(15),17(22),18,20-nonaen-12-one] |
| 250 nM | 250 nM | – | – | – | – | CN(C)CCCn1c2ccccc2c2c3c(c4c5ccccc5n(C)c4c21)C(=O)NC3 [23-[3-(dimethylamino)propyl]-3-methyl-3,13,23-triazahexacyclo[14.7.0.0^{2,10}.0^{4,9}.0^{11,15}.0^{17,22}]tricosa-1(16),2(10),4,6,8,11(15),17(22),18,20-nonaen-12-one] |
| 310 nM | 31 nM | – | – | – | – | CN(C)CCCn1c2ccc(O)cc2c2c3c(c4c5cc(O)ccc5[nH]c4c21)C(=O)NC3 [23-[3-(dimethylamino)propyl]-7,19-dihydroxy-3,13,23-triazahexacyclo[14.7.0.0^{2,10}.0^{4,9}.0^{11,15}.0^{17,22}]tricosa-1(16),2(10),4,6,8,11(15),17(22),18,20-nonaen-12-one] |
| 220 nM | 220 nM | – | – | – | – | COc1ccc2[nH]c3c(c4c(c5c6cc(OC)ccc6n(CCCN(C)C)c35)CNC4=O)c2c1 [23-[3-(dimethylamino)propyl]-7,19-dimethoxy-3,13,23-triazahexacyclo[14.7.0.0^{2,10}.0^{4,9}.0^{11,15}.0^{17,22}]tricosa-1(16),2(10),4,6,8,11(15),17(22),18,20-nonaen-12-one] |
| 5500 nM | 5500 nM | > 100000 nM | – | – | – | CN(C)CC(O)Cn1c2ccccc2c2c3c(c4c5ccccc5n(C)c4c21)C(=O)NC3 (stereo unspecified) [Indolocarbazole deriv.] |
| 5800 nM | – | > 10000 nM | – | – | – | Cn1c2ccccc2c2c3c(c4c5ccccc5n(CCC#N)c4c21)CNC3=O [Indolocarbazole deriv.] |
